{"source": "patent US20010046957A1", "about": "“Method for treating hepatitis C” (priority 1999, published 2001)", "origin": "cited, not measured here", "key": {"yellow fever virus": {"test_system": "yellow fever virus", "conditions": "(Neyts J)"}, "HCV [1]": {"test_system": "HCV", "conditions": "patients with CHC virus infection following liver transplant, after initiation of MMF therapy for rejection; anecdotal report (Platz KP)"}, "HCV [2]": {"test_system": "HCV"}, "[3]": {"conditions": "patients treated at currently recommended doses"}, "[4]": {"conditions": "in vivo"}}}
{"compound": "COc1c(C)c2c(c(O)c1C/C=C(\\C)CCC(=O)OCCN1CCOCC1)C(=O)OC2", "note": "[MMF, mycophenolate mofetil]", "values": [{"measurement": "antiviral activity", "setting": "yellow fever virus", "value": "antiviral activity"}, {"measurement": "serum HCV RNA levels", "setting": "HCV [1]", "value": "decrease in some patients"}]}
{"compound": "NC(=O)c1ncn([C@@H]2O[C@H](CO)[C@@H](O)[C@H]2O)n1", "note": "[Ribavirin, 1-β-D-ribofuranosyl-1 H-1 ,2,-4-triazole-3-carboxamide]", "values": [{"measurement": "improvement of sustained virological response rates over IFN-α monotherapy", "setting": "HCV [2]; ribavirin combined with IFNα, CHC (Lai MY; Reichard O)", "value": "approximately 2 fold"}, {"measurement": "end of treatment virological response", "setting": "HCV [2]; ribavirin combined with a pegylated form of IFN-α2A, small pilot study of safety (Sulkowski M.)", "value": 70, "unit": "%"}, {"measurement": "sustained loss of detectable virus", "setting": "HCV [2]; ribavirin plus IFNα regimen, treated patients (McHutchison JG)", "value": "30 - 40%"}, {"measurement": "significant hemolysis, patients affected", "setting": "[3]", "value": "10-20%"}]}
{"compound": "IFN-α", "values": [{"measurement": "sustained response", "setting": "HCV [2]; IFN-α monotherapy, general CHC populations (Fried M)", "value": "5-20%"}]}
{"compound": "Mycophenolic acid [MPA]", "values": [{"measurement": "bioavailability", "setting": "[4]", "value": "limited"}]}
